From PubChem BioAssay AID504675 (Southern Research Specialized Biocontainment Screening …, 2011) come the findings set out here.

Where only a bound is given, the exact number is not on record here.

The subject of this assay is E. coli UTI89 K1 capsule, phage K1F lysis, OD600. The experiment in a line: inhibition of K1F phage lysis of E. coli UTI89, dose response, capsule biogenesis inhibitor project, strain UTI89, C7 control, set 3 (AID 504675). The following applies: measured here: cytotoxicity test.

By CC50 is commonly meant the concentration that lowers cell viability or growth by half. For the molecule `O=C(O)c1cc(-c2cccc(F)c2)nc2ccccc12`, the CC50 is greater than 300 µM.

As to `COc1ccc2nc(NC(=O)c3ccccc3OC)sc2c1`, the CC50 is 66.8 µM.

As to `COc1cccc(-c2cc(C(=O)O)c3ccccc3n2)c1`, the CC50 was 78.3 µM.

`COc1ccc(C(=O)Nc2nc3ccc(OC)cc3s2)cc1`: the CC50 was greater than 300 µM.

Regarding `COc1ccc2nc(NC(=O)c3cccs3)sc2c1`, the CC50 was determined as 104 µM.

Molecule `COc1ccc2nc(NC(=O)c3ccc(F)cc3)sc2c1` yielded a CC50 of 21.7 µM.

In turn, `COc1cccc(C(=O)Nc2nc3ccc(OC)cc3s2)c1` gave a CC50 of 23.4 µM.

Turning to `N=c1n(CCN2CCCC2)c2ccccc2n1CC(O)c1ccc(Cl)c(Cl)c1` (stereo not given), the CC50 is 9.38 µM.

In turn, `COc1ccc2nc(NC(=O)c3ccco3)sc2c1` had a CC50 of 93.4 µM.

`COc1ccc2nc(NC(=O)c3ccccc3)sc2c1` yielded a CC50 of 45.4 µM.
